Values quoted from earlier work, collected in article PMC5224880, “Discovery and Molecular Basis of a Diverse Set of Polycomb Repressive Complex 2 Inhibitors Recognition by EED” (PLoS ONE, 2017).
Entries after “also recorded” stand apart in the source; their conditions may differ.

Experiments:
PRC2 = system: PRC2; parameters: method as in PMID 28135235; details: recombinant NCP as substrate; read-out: half-maximum stimulation (Kact) of PRC2 activity; cited from earlier work
[1] = system: tumor growth in the xenograft mouse model; parameters: method as in PMID 28135235; details: cited from earlier work

For “H3K27me3 stimulatory peptide: activation peptide H3K27me3 (21–44) used to stimulate PRC2 activity for the nucleosome substrate”, the EC50 (PRC2) is given as 1 µM.
For `CS(=O)(=O)c1ccc(-c2cnc(NCc3ccco3)n3cnnc23)cc1` [EED226], the antitumor activity [1] is listed as “strong antitumor activity; also recorded: completely regressed tumor growth”.
